Results as given in article PMC12566191, “Isolation and In Vitro Activity of Sesquiterpene Lactones from Eremanthus crotonoides as SARS-CoV-2 Protease Inhibitors and Cytotoxic Agents” (Molecules, 2025).
Where “and” joins values, the source holds several entries; their conditions need not be identical. Identical values can stand only once. Entries after “also recorded” stand apart in the source; their conditions may differ. Like-named read-outs stand apart in the source and are kept apart here.

Legend:
[1] = Cell viability, MTT assay, HCT-116; format: cell-based, human; conditions: human
Experimental: (§1) The cytotoxicity of crude extract and isolated compounds were evaluated against the human tumor cell lines PC-3 (prostatic carcinoma cell) and HCT-116 (colorectal carcinoma cell). Cell maintenance was performed as described in the literature. The extract and isolated compounds were tested at the concentrations of 0.05 and 50 μg/mL and 0.01 and 10 μM, respectively. Saponin digitonin (100 µM), a very potent permeabilizer of cell membranes, was used as positive control to induce 0% cell viability after 48 h of treatment.
(§2) Cell viability was determined by MTT and crystal violet (CV) assays after 48 h of incubation. Absorbance was measured using an automated microplate reader at 540 nm with a reference wavelength of 670 nm. Results are expressed as percentages relative to untreated control cultures.

[2] = Cell viability, crystal violet (CV) assay, PC-3; format: cell-based; conditions: human
Experimental: as §1, §2

[3] = molecular target: Recombinant SARS-CoV-2 3CLpro (Severe acute respiratory syndrome coronavirus 2, UniProt P0DTD1); experiment: FRET enzymatic inhibition assay, 3CLpro; format: biochemical; conditions: for inhibition at 1000 µM: read-out: Maximum inhibition (%) 3CLpro
[4] = tested on: clinical isolate of S. aureus; set-up: method as in doi:10.1007/s43450-021-00176-z; conditions: cited from earlier work
[5] = molecular target: Recombinant SARS-CoV-2 PLpro (Severe acute respiratory syndrome coronavirus 2, UniProt P0DTD1); experiment: FRET enzymatic inhibition assay, PLpro; format: biochemical
[6] = Cell viability, crystal violet (CV) assay, HCT-116; format: cell-based; conditions: human
Experimental: as §1, §2

[7] = tested on: S. aureus; set-up: method as in doi:10.1007/s43450-021-00176-z; conditions: cited from earlier work
[8] = Cell viability, MTT assay, PC-3; format: cell-based, human; conditions: human
Experimental: as §1, §2

[9] = tested on: glioblastoma multiforme; set-up: method as in doi:10.1590/S0102-695X2012005000131; conditions: cited from earlier work
[10] = tested on: HCT-116 (colorectal carcinoma cell); experiment: Cell viability, MTT assay, HCT-116; format: cell-based, human; conditions: 10 µM (goyazensolide: ≤ 10 µM), 48 h, MTT and CV assays
Experimental: as §1, §2

[11] = tested on: PC-3 (prostatic carcinoma cell); experiment: Cell viability, MTT assay, PC-3; format: cell-based, human; conditions: 10 µM (goyazensolide: ≤ 10 µM), 48 h, MTT and CV assays
Experimental: as §1, §2

[12] = maximum inhibition conc. 1,000 µM (highest concentration tested)
[13] = 125 µg/mL (101.7 µM), positive control
[14] = HCT-116 colorectal carcinoma cells

Work on `C=C1C(=O)OC2C=C(CO)C3=CC(=O)C(C)(CC(OC(=O)C(C)=CC)C12)O3` (stereo not drawn) [Centratherin, centratherin] yielded a viability at 48 h, 0.01 µM [1] of 100 ± 9.6%, a viability at 48 h, 10 µM [1] of 0% and a viability at 48 h, 0.01 µM [2] of 100 ± 3.6%. It also gave a viability at 48 h, 10 µM [2] of 0%, an IC50 ([3]; Apparent IC50 3CLpro) of 165 µM and an inhibition at 1000 µM [3] of 89.5 ± 0.97%. The “Concentration inhibiting clinical isolate of S. aureus” value [4] was 32 µg/mL, the IC50 ([5]; Apparent IC50 PLpro) was 12 µM and 11.9 µM and the “Maximum inhibition (%) PLpro” value [5, 12] was 97%. It also gave an inhibition at 1000 µM ([5]; read-out: Maximum inhibition (%) PLpro, maximum inhibition conc. 1,000 µM (highest concentration tested)) of 96.77 ± 0.3%, a viability at 48 h, 0.01 µM [6] of 114 ± 5.6% and a viability at 48 h, 10 µM [6] of 3.5 ± 9.1%. For the same molecule, the “Concentration with antibiofilm activity” value [7] was 128 µg/mL, the viability at 48 h, 0.01 µM [8] was 100 ± 13.5% and the viability at 48 h, 10 µM [8] was 0%. For the same molecule, the “Cytotoxic activity against glioblastoma multiforme” value [9] was “exhibited cytotoxic activity” and the “IC50 values against glioblastoma multiforme, compared with doxorubicin” value [9] was “comparable to the commercial anticancer drug doxorubicin”.

`C[C@@H]1CC[C@@]2(OC1)O[C@H]1[C@@H](O)[C@H]3[C@@H]4CC[C@H]5C[C@@H](O[C@@H]6O[C@H](CO)[C@H](O[C@@H]7O[C@H](CO)[C@@H](O)[C@H](O[C@@H]8OC[C@@H](O)[C@H](O)[C@H]8O)[C@H]7O[C@@H]7O[C@H](CO)[C@H](O)[C@H](O[C@@H]8O[C@H](CO)[C@@H](O)[C@H](O)[C@H]8O)[C@H]7O)[C@H](O)[C@H]6O)[C@H](O)C[C@]5(C)[C@H]4CC[C@]3(C)[C@H]1[C@@H]2C` [DGTN, digitonin, reference compound] gave a viability at 48 h, 101.7 µM [1, 13] of 0%, a viability at 48 h, 101.7 µM [2, 13] of 0% and a viability at 48 h, 101.7 µM [6, 13] of 0%. It also gave a viability at 48 h, 101.7 µM [8, 13] of 0%.

In the case of `C=C(C)C(=O)OC1CC2(C)OC(=CC2=O)C(CO)=CC2OC(=O)C(=C)C21` (stereo not drawn) [Goyazensolide, goyazensolide], the viability at 48 h, 0.01 µM [1, 14] is reported as 99.6 ± 5.9%, the viability at 48 h, 10 µM [1, 14] is reported as 100 ± 5.8% and the “Reduction of cell viability, HCT-116” value [10] is reported as “no noteworthy effects; also recorded: unable to decrease cell viability; also recorded: no such effect”. The viability at 48 h, 0.01 µM ([2]; PC-3 prostatic carcinoma cells) was 89.5 ± 2.8%, the viability at 48 h, 10 µM ([2]; PC-3 prostatic carcinoma cells) was 91.4 ± 1.7% and the “Maximum inhibition (%) 3CLpro” value [3, 12] was 96%. For the same molecule, the inhibition at 1000 µM [3, 12] was 96.14 ± 0.01%, the IC50 ([3]; read-out: Apparent IC50 3CLpro) was 71.1 µM and 71 µM and the inhibition at 1000 µM ([5]; maximum inhibition conc. 1,000 µM (highest concentration tested), read-out: Maximum inhibition (%) PLpro) was 80.7 ± 5.9%. It also gave an IC50 ([5]; read-out: Apparent IC50 PLpro) of 317 µM, a viability at 48 h, 0.01 µM [6, 14] of 113 ± 4% and a viability at 48 h, 10 µM [6, 14] of 92.1 ± 9%. The viability at 48 h, 0.01 µM ([8]; PC-3 prostatic carcinoma cells) was 86.6 ± 4.7%, the viability at 48 h, 10 µM ([8]; PC-3 prostatic carcinoma cells) was 100 ± 18% and the “Reduction of cell viability, PC-3” value [11] was “no noteworthy effects; also recorded: unable to decrease cell viability; also recorded: no such effect”.
